Experimental data: paper PMC10762068, “Selective blockade of Cav1.2 (α1C) versus Cav1.3 (α1D) L-type calcium channels by the black mamba toxin calciseptine” (Nature Communications, 2024)
Entries after “also recorded” stand apart in the source; their conditions may differ. Read-outs that look alike come from different tables or passages of the source. Positions of bridges follow the written chain, without caps; N, C: chain ends. No end group written: not given here.

Assays:
Assay type in all cases: cell-based
Cav2.2 N-type = assay: Ca2+ current in HEK-293T cells expressing Cav2.2; conditions: Cas 300 nM (n=11/N=3) and 1 µM (n=9/N=3); holding -90 mV, step +20 mV
Protocol: HEK-293T (RRID:CVCL_2737) were obtained from the European Collection of Authenticated Cell Cultures (ECACC 96121229). The identity of HEK-293T has been confirmed by STR profiling and the cells have been eradicated from mycoplasma at ECACC. We routinely tested the cells for the absence of the mycoplasma contamination. Cells were cultivated at 37 °C in DMEM supplemented with GlutaMax, 10% fetal bovine serum and 1% penicillin/streptomycin (Invitrogen, Fisher Scientific, France). […]
Macroscopic currents in HEK-293T cells were recorded at room temperature using an Axopatch 200B or Multiclamp 700B patchclamp amplifier (Molecular Devices, Sunnyvale CA). […]
In all experiments of cellular electrophysiology, we employed synthetized analog of Cas, commercially available at Latoxan (ID: L8109). […] Its measured molecular mass (7036.26 Da average) was in accordance with the mass calculated from sequence data (7036.22 Da). […]
n=10/N=3) channels. Peak current density wa s recorded starting f rom a holding potential of -80mV using an activating voltage step at -30mV for Cav3.1, f ro m a holding potential of -90mV using an activating voltage step at +20mV for Cav2.2 and f rom a holding potential of -80mV using an activating voltage step at 0mV for Cav2.1. Exam ples of recorded traces are reported. […]

Cav1.3_42 = assay: Whole cell recording of ICav1.3-42 in HEK-293T cells; conditions: for L-type Ca2+ current density: mean ± SEM, n=6
Protocol: (§1) HEK-293T (RRID:CVCL_2737) were obtained from the European Collection of Authenticated Cell Cultures (ECACC 96121229). The identity of HEK-293T has been confirmed by STR profiling and the cells have been eradicated from mycoplasma at ECACC. We routinely tested the cells for the absence of the mycoplasma contamination. Cells were cultivated at 37 °C in DMEM supplemented with GlutaMax, 10% fetal bovine serum and 1% penicillin/streptomycin (Invitrogen, Fisher Scientific, France). Transfections were performed using jet-PEI (Ozyme, France) with a DNA mix containing either the plasmids that code for Cav1.2-GFP, β2a and α2δ (0.8 µg of each) or either the plasmids that code for Cav1.3 (with and without exon 42a), or Cav2.1, or either Cav2.2 combined with β2a and α2δ (0.8 µg of each supplemented with 0.025 µg of a plasmid coding for GFP). For Cav3.1 expression β2a and α2δ subunits were omitted. Plasmids coding for β2a, α2δ and Cav1.3 were created as described previously. Plasmid coding for Cav1.2-GFP was obtained from Dr. Catalucci[60]. After transfection cells were placed at 30 °C for 2–3 days and dissociated with Versene (Invitrogen, Fisher Scientific, France) and plated at a density of ~35 × 10^3 cells per 35 mm Petri dish for electrophysiological recordings, which were performed the following day.
(§2) Macroscopic currents in HEK-293T cells were recorded at room temperature using an Axopatch 200B or Multiclamp 700B patchclamp amplifier (Molecular Devices, Sunnyvale CA). […] The extracellular solution contained (in mM): 135 NaCl, 20 TEACl, 5 BaCl2, 1 MgCl2, and 10 HEPES (pH adjusted to 7.25 with KOH, ~330 mOsm).
(§3) In all experiments of cellular electrophysiology, we employed synthetized analog of Cas, commercially available at Latoxan (ID: L8109). The native peptide was purified from the venom of Dendroaspis polylepis purchased from Latoxan, as previoulsly described. The pure peptide was obtained after gel filtration, cation exchange and C18 reversed phase chromatography. Its measured molecular mass (7036.26 Da average) was in accordance with the mass calculated from sequence data (7036.22 Da).

Cav1.2 = molecular target: T1, Cav1.2 (Homo sapiens, UniProt Q13936); assay: cell-based; conditions: for L-type Ca2+ current density: mean ± SEM, n=11
T1 construct: expressed in transfected cells; host or cells: HEK-293T
Protocol: as §1, §2
as §3, with “chromatography.” for “chromatography. Its measured molecular mass (7036.26 Da average) was in accordance with the mass calculated from sequence data (7036.22 Da).”

[1] = HEK-293T, read-out: inhibition of ICav1.2

T1 sequence (Q13936 whole entry): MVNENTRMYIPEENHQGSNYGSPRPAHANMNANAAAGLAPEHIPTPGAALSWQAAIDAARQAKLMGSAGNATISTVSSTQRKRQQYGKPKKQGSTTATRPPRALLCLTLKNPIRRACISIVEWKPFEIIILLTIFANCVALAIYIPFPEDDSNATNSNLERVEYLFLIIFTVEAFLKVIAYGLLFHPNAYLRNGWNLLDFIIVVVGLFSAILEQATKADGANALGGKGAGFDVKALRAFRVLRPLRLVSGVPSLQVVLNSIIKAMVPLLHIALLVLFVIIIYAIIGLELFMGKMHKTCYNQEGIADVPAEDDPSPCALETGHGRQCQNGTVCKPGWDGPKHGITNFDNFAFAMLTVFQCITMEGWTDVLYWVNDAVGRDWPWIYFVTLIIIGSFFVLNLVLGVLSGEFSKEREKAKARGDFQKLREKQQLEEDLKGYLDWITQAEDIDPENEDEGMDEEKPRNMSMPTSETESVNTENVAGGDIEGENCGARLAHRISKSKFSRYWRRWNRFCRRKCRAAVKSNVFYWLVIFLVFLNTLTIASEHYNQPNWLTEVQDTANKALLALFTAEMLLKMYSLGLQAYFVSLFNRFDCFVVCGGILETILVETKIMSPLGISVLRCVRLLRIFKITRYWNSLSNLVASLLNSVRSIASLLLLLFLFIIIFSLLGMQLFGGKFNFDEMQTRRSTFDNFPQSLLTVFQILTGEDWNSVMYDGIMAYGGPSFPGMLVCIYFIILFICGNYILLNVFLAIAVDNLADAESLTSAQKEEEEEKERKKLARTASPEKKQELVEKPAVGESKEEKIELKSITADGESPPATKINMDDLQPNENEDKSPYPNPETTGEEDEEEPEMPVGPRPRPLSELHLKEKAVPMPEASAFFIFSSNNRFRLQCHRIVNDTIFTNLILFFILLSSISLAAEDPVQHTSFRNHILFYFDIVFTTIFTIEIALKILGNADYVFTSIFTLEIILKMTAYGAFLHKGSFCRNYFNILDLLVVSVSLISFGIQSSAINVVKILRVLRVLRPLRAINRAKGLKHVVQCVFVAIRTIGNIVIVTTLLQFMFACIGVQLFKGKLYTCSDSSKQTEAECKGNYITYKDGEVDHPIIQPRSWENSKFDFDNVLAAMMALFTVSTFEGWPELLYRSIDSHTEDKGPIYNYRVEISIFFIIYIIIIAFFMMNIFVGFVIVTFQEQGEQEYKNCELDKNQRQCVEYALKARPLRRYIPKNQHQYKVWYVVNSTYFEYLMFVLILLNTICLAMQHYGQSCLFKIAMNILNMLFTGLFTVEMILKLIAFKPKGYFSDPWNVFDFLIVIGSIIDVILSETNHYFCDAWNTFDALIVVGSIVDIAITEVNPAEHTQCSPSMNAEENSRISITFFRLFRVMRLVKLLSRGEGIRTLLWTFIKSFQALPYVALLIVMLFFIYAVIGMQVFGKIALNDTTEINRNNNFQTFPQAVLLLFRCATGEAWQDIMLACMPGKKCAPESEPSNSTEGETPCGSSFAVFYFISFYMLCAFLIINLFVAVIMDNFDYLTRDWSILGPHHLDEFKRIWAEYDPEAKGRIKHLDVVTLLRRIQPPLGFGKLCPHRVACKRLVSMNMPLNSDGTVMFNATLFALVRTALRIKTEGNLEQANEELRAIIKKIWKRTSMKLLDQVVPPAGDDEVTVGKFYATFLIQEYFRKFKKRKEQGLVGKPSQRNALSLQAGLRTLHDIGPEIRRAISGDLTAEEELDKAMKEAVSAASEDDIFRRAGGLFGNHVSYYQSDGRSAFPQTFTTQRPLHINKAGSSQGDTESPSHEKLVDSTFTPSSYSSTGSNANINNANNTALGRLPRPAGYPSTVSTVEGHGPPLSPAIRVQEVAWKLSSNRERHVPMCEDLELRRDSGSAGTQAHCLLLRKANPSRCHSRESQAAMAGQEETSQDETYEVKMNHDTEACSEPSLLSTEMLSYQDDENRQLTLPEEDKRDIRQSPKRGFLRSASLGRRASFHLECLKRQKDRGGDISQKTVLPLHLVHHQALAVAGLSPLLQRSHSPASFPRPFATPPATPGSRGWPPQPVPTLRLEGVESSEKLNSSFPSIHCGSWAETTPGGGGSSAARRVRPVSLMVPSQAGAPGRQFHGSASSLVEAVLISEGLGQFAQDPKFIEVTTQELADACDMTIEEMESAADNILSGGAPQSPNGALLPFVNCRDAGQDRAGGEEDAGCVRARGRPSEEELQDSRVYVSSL
T1 sequence (Q08289 whole entry partner): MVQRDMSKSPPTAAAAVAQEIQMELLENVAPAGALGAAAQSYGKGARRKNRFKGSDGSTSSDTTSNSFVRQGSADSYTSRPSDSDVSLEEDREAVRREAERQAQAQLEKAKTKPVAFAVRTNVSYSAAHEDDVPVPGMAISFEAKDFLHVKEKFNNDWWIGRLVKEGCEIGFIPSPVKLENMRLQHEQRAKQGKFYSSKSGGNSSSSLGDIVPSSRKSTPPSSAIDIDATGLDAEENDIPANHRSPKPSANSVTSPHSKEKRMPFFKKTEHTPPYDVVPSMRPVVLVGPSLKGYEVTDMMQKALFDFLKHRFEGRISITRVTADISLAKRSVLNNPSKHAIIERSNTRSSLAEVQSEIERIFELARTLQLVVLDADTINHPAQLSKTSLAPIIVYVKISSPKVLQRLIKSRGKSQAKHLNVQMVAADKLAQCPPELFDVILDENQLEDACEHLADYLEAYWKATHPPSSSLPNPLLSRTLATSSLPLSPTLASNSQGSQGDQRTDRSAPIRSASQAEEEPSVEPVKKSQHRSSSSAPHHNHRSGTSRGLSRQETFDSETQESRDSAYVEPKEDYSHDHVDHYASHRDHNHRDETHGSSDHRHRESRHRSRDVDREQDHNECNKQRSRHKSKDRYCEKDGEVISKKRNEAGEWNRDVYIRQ
T1 sequence (P54289 25-956 partner limits assumed): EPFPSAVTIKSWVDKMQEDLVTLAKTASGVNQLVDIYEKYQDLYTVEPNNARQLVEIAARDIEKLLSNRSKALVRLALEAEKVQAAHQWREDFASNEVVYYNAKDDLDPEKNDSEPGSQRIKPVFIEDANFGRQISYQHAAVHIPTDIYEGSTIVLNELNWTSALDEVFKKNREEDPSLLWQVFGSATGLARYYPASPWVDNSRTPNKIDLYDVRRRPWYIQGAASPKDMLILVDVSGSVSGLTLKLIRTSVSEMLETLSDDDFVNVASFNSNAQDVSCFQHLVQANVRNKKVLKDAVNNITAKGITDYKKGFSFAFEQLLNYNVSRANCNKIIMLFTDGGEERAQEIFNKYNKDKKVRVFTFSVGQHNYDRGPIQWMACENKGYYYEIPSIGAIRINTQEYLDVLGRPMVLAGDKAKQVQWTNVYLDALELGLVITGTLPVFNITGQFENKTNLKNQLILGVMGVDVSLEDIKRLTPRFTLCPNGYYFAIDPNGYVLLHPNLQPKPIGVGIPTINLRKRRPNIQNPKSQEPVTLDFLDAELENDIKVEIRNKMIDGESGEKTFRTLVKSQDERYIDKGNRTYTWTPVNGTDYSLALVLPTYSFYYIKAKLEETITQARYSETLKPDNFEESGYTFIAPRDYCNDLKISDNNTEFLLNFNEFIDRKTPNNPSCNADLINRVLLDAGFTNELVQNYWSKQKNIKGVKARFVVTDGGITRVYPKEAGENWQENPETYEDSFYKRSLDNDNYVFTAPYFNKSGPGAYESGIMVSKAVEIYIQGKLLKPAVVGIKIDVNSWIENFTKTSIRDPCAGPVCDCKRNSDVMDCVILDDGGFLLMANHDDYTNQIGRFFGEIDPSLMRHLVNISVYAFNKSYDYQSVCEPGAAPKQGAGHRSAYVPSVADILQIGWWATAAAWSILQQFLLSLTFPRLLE
T1 sequence (P54289 957-1103 partner limits assumed): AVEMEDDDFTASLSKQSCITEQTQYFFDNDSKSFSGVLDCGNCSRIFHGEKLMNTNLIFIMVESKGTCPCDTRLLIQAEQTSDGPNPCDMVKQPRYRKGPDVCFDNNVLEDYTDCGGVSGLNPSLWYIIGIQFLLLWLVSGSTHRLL

**Q.** How did the “effect on Cav2.2 current” value (Cav2.2 N-type) turn out when “RICYIHKASLPRATKTCVENTCYKMFIRTQREYISERGCGCPTAMWPYQTECCKGDRCNK (disulfide 3-22, 17-39, 41-52, 53-58 (inferred)) [Cas, calciseptine]” was run?
**A.** The value was “failed to detect inhibitory effect; also recorded: had no effect”.

**Q.** What about the “reduction of Ca current, long form of Cav1.3 (Cav1.3L)” value (Cav1.3_42; Cas 300 nM and 1 µM) of the same sequence?
**A.** Its value is “did not observe any reduction”.

**Q.** And the “effect on ICav1.3-42 (I-V relationship)” value (Cav1.3_42; Cas 300 nM, all voltages tested, at peak p = 0.5696, n=6/N=3)?
**A.** Its value is “no significant effect”.

**Q.** And the “L-type Ca2+ current density” value (Cav1.3_42; Cas 300 nM, 0 mV, Ctrl -15.10± 3.34)?
**A.** Its value is -14.76± 4.28 pA/pF.

**Q.** And the “L-type Ca2+ current density” value (Cav1.3_42; Cas 300 nM, +10 mV, Ctrl -12.01± 2.36)?
**A.** The value was -11.09± 3.45 pA/pF.

**Q.** What about the “L-type Ca2+ current density” value (Cav1.3_42; Cas 300 nM, +20 mV, Ctrl -6.20± 1.35) of the same sequence?
**A.** Its value is -6.12± 2.78 pA/pF.

**Q.** And the “L-type Ca2+ current density” value (Cav1.3_42; Cas 300 nM, +30 mV, Ctrl -3.03± 0.66)?
**A.** Its value is -2.96± 2.36 pA/pF.

**Q.** And the “L-type Ca2+ current density” value (Cav1.3_42; Cas 300 nM, -10 mV, Ctrl -15.68± 3.76)?
**A.** The value was -15.81± 4.50 pA/pF.

**Q.** And the “L-type Ca2+ current density” value (Cav1.3_42; Cas 300 nM, -20 mV, Ctrl -12.28± 3.31)?
**A.** The value was -12.95± 3.93 pA/pF.

**Q.** And the “reduction of ICav1.3-42” value (Cav1.3_42; all concentrations tested (up to 1 µM), holding −60 mV, step 0 mV, 300 nM n=6/N=3, 1 µM n=7/N=3)?
**A.** The value was “did not record a statistically significant reduction”.

**Q.** And the “effect on outward-going ICav1.2 at +150 mV” value (Cav1.2; Cas 300 nM, n=6/N=3, holding -60 mV)?
**A.** Its value is “almost no effect”.

**Q.** What about the “L-type Ca2+ current density” value (Cav1.2; Cas 300 nM, 0 mV, Ctrl -9.25± 2,32) of the same sequence?
**A.** The value was -3.32± 0.87 pA/pF.

**Q.** What about the “L-type Ca2+ current density” value (Cav1.2; Cas 300 nM, +10 mV, Ctrl -9.90± 1,94) of the same sequence?
**A.** Its value is -3.92± 0.94 pA/pF.

**Q.** And the “L-type Ca2+ current density” value (Cav1.2; Cas 300 nM, +20 mV, Ctrl -8.05± 1.41)?
**A.** Its value is -3.08± 0.77 pA/pF.

**Q.** What about the “L-type Ca2+ current density” value (Cav1.2; Cas 300 nM, +30 mV, Ctrl -4.66± 0.82) of the same sequence?
**A.** The value was -1.53± 0.51 pA/pF.

**Q.** What about the “L-type Ca2+ current density” value (Cav1.2; Cas 300 nM, -10 mV, Ctrl -5.72± 1.83) of the same sequence?
**A.** Its value is -1.76± 0.46 pA/pF.

**Q.** And the “L-type Ca2+ current density” value (Cav1.2; Cas 300 nM, -20 mV, Ctrl -1.41± 0.28)?
**A.** Its value is -0.70± 0.17 pA/pF.

**Q.** And the inhibition at 0.1 µM (Cav1.2; [1])?
**A.** Its inhibition at 0.1 µM is 37%.

**Q.** What about the inhibition at 0.3 µM (Cav1.2; [1]) of the same sequence?
**A.** Its inhibition at 0.3 µM is 70%.

**Q.** What about the inhibition at 1 µM (Cav1.2; [1]) of the same sequence?
**A.** The inhibition at 1 µM was 80%.

**Q.** What about the inhibition at 0.3 µM (Cav1.2; HEK-293T, read-out: inhibition of ICav1.2 (I-V relationship)) of the same sequence?
**A.** The inhibition at 0.3 µM was about 60%.

**Q.** And the V0.5 for activation (Cav1.2; during Cas application, control −3 ± 2 mV, n = 8, Wilcoxon p = 0.0078)?
**A.** Its V0.5 for activation is 3 ± 2 mV.
